In this assay the target is T1, TRPV3 mutant W692C (Homo sapiens, UniProt Q8NET8, W692C).
T1 construct: YFP or GFP; expressed in transfected cells; host or cells: HEK293T
T1 sequence (Q8NET8 1-790 W692C): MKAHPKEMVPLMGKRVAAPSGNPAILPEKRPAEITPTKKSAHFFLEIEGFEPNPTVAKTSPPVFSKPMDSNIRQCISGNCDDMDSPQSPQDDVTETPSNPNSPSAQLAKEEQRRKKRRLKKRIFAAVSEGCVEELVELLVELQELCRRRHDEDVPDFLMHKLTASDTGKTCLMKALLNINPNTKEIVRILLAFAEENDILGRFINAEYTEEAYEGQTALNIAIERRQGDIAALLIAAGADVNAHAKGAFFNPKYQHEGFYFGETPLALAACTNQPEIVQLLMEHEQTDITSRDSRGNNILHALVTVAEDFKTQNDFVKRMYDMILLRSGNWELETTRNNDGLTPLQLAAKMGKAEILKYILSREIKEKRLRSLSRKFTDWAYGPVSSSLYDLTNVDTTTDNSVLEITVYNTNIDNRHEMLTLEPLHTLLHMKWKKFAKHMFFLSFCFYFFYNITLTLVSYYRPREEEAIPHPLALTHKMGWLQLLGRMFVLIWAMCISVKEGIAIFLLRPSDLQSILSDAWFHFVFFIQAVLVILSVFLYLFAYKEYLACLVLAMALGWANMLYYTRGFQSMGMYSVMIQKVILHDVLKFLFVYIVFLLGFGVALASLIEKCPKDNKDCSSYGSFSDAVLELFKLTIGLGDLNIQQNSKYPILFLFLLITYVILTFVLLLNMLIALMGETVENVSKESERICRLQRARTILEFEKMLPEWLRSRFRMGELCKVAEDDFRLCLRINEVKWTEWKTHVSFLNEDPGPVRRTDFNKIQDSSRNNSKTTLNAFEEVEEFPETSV
Put plainly: Whole-cell recording of gain-of-function TRPV3 mutant W692C. Format: cell-based. The settings on record: concentration gradients of HCQ, ± 80 mV. The protocol:
To test the effect of HCQ on carvacrol-induced skin inflammation, we evaluated the inhibitory effect of HCQ on TRPV3 activated by carvacrol in vitro.
Figure 5 HCQ can attenuate mice back skin lesions induced by TRPV3 agonist carvacrol.A, representative whole-cell recording of TRPV3 in response to 1 mM carvacrol (Car), the mixture of 1 mM Car, and concentration gradients of HCQ with the holding potential of ± 80 mV. B, concentration–response curve of Car and HCQ on TRPV3 channels fitted by Hill equation. Data were shown as mean ± SEM (n = 6 cells). C, representative whole-cell recording of W692C mutants in response to concentration gradients of HCQ with the holding potential of ± 80 mV. D, concentration–response curve of HCQ on W692C mutants fitted by Hill equation. Data were shown as mean ± SEM (n = 4 cells). E, paradigm of generation of AD-like mice model induced by Car. […] A 200 μl volume of drug was applied to each mouse. Green lines indicate the thickness of the epidermis. Upper panel, the scale bar represents 2 cm; bottom panel, scale bar represents 100 μm. G–I, quantification of thickness (G), erythema (H), dryness, and scaling (I), (n = 6 mice, mean ± SEM), thickness: F (3, 20) = 20.68, p < 0.0001; erythema: F (3, 20) = 55.10, p < 0.0001; dryness and scaling: F (3, 20) = 39.61, p < 0.0001 by one-way ANOVA followed using Tukey's post hoc test. […]

Take `CCN(CCO)CCCC(C)Nc1ccnc2cc(Cl)ccc12` (stereo not shown) [HCQ, hydroxychloroquine]: the “effect on activity of gain-of-function TRPV3 mutant W692C” value is “inhibited”.

These data come from publication PMC11460631, “Inhibition of transient receptor potential vanilloid 3 channels by antimalarial hydroxychloroquine alleviates TRPV3-dependent dermatitis” (The Journal of Biological Chemistry, 2024).
